Assay results from US6391857B1, “Methods and compositions for endothelial binding” (Stanford University, priority 1990, dated 2002).

Columns and labels:
ELAM-1 = biological target: T1, ELAM-1 (Homo sapiens, UniProt P16581); assay: Cell binding assay: L1-2^ELAM-1 cells on glass slides coated with synthetic glycoconjugates; format: cell-based; settings: 25 min RT, 50 rpm
T1 construct: expressed in transfected cells; host or cells: murine pre-B cell line L1-2, vector pMRB101 derivative (pMRB107), hCMV promoter
T1 sequence (P16581 22-610): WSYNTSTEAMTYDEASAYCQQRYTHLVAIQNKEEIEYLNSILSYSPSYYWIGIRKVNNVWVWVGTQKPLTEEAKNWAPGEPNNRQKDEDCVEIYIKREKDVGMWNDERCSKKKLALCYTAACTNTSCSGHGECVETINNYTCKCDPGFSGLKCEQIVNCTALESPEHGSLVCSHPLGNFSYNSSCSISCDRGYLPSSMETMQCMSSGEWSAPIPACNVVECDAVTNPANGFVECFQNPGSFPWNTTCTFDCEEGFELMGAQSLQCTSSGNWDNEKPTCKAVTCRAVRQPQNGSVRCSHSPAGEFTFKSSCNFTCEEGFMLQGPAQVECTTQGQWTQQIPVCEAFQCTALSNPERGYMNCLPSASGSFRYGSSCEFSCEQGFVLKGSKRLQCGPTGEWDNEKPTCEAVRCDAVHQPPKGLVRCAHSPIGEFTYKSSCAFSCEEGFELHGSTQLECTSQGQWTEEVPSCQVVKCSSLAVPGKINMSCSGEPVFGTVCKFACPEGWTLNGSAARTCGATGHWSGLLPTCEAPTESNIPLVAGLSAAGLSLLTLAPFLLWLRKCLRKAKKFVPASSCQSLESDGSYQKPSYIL
Experimental: L1-2/pMRB107 cells (L1-2^ELAM-1) were prepared by transfecting the ELAM-1 gene into the murine pre-B cell line L1-2 (Gallatin et al. (1983) Nature 35 304:30-34). A cDNA clone encoding ELAM-1 was obtained from a CDNA library made from activated human umbilical vein endothelial cell cultures by polymerase chain reaction amplification. The ELAM-1 gene was inserted downstream of the hCMV promoter in pMRB101 [a derivative of EE6 which contains the E. coli gpt gene (Mulligan and Berg (1981) Proc. Nat'l. Acad. Sci. USA 78:2072; Stephens and Corbett (1989) N.A.R. 17:7110)]. DNA was introduced into L1-2 cells by electroporation and the cells selected for resistance to mycophenolic acid. A population of cells staining brightly for ELAM-1 were selected by FACS and cloned by limiting dilution. These cells are ELAM-1^hi LFA-1^mod CD45^hi CD44^neg LECAM-1^neg, differing from the parent cell line or control vector transfectants only in their expression of ELAM-1. L1-2/pMRB101 (L1-2^vector) cells are a similarly transformed derivative of L1-2 transfected with pMRB101 and lacking ELAM-1 expression.
One hundred microliter samples of each synthetic glycoconjugate in phosphate buffered saline (PBS), pH 7.2, were absorbed onto glass wells of 8-chamber slides (LabTek) for two hours at RT. For some experiments glass slides were pre-coated with rabbit anti-human serum albumin (Sigma) at 200 μg/ml overnight at 4° C. and washed with PBS prior to the addition of the glycoconjugate. After blocking with 5% NBS/ 10 mM HEPES/Dulbecco's Modified Eagles Medium (DMEM), pH 7.0 (CM), L1-2^ELAM-1 or L1-2^vector cells were applied to each well (1.5×10^6/0.15 ml in CM). After a 25 minute incubation at RT on a rotating shaker at 50 rpm, the tops of the wells were removed and the slides washed 3× in DMEM and then fixed by incubation in 1.5% glutaral-dehyde (Kodak)/DMEM. Three to six 100× fields were counted for each data point and the average and standard error are reported. Data reported are from representative experiments which were performed 2-5 times with similar results.

mouse LECAM-1 = biological target: T2, mouse LECAM-1 (Mus musculus, UniProt P18337); assay: Cell binding assay: mouse lymphocytes on coated synthetic glycoconjugates; format: cell-based; settings: mesenteric lymph node lymphocytes, 3×10^6 cells in 0.15 ml
T2 construct: Mouse lymphocytes isolated from mesenteric lymph nodes were also tested; endogenous in cells; host or cells: primary mouse lymphocytes from mesenteric lymph nodes
T2 sequence (P18337 39-372): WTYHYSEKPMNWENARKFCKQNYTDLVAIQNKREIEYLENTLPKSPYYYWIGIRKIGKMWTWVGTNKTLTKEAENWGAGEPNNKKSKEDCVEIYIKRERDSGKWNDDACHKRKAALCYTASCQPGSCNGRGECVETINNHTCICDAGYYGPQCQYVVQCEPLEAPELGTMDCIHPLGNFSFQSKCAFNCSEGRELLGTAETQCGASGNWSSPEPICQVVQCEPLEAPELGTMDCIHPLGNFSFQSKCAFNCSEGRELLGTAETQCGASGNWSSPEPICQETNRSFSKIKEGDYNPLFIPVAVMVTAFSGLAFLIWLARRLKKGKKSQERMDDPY
Experimental: Cell binding assays. One hundred microliter samples of each synthetic glycoconjugate in phosphate buffered saline (PBS), pH7.2, were absorbed onto glass wells of 8-chamber slides (LabTek) for two hours at RT. After blocking with 5% NBS, 10 mM HEPES, Dulbecco's Modified Eagles Medium (DMEM), pH7.0 (CM), L1-2^LECAM-1, L1-2^vector or L1-2^ELAM-1 cells were applied to each well (1.5×10^6 cells in 0.15 ml CM). Mouse lymphocytes isolated from mesenteric lymph nodes were also tested at 3×10^6 cells in 0.15 ml. In some cases, cells were preincubated with monoclonal antibody MEL-14 (Gallatin et al., 1983, supra) at 150 μg/ml/10^7 cells and washed prior to testing. After a 25 minute incubation at RT on a rotating shaker at 50 rpm, the tops of the wells were removed and the slides washed 3× in DMEM and then fixed by incubation in 1.5% glutaraldehyde (Kodak) in DMEM. Three to six 100× fields were counted for each data point and the average and standard error are reported. Data reported are from representative experiments which were performed 2-5 times with similar results.

antibody 1H10 = assay: Direct binding ELISA of antibody 1H10 to solid-phase neoglycoproteins; parameters: species or system mouse; settings: 100 ng neoglycoprotein per well, antibody 10 μg/ml
Experimental: Synthetic glycoproteins were coated onto microtiter plates by filling each well with 100 ng of the neoglycoprotein in 100 μl of 0.15 M sodium chloride, 0.01 M sodium phosphate, 0.1% sodium azide, pH 7.4, (PBS-azide) overnight at 4° C. Standard enzyme-linked immunoassays (ELISA) were then performed on the solid phase carbohydrate structures using the appropriate antibody diluted to 10 μg/ml.

binding of L1-2^ELAM-1 cells to coated glycoconjugate (ELAM-1) | binding of mouse lymphocytes to coated neoglycoconjugate (mouse LECAM-1) | direct binding of antibody 1H10 to neoglycoprotein (antibody 1H10) | Substance
did not bind |  |  | Neu5Acα2-6Galβ1-4GlcNAcβ1-3Galβ1-4(Glc) [LSTc]
did not bind | not |  | NeuNAc α2-3Gal βl-4 (Glc) [3′SL]
did not bind | not |  | NeuNAc α2-6Gal βl-4 (Glc) [6′SL]
did not bind | not | weakly crossreacts | Neu5Acα2-3Galβ1-3GlcNAcβ1-3Galβ1-4(Glc) [LSTa]
